Reference: patent US8012983B2, “Substituted triazolopyrazines useful for the treatment of degenerative and inflammatory diseases” (Galapagos NV, priority 2008, dated 2011)

biological target: T1, MAPKAPK5 (Homo sapiens, UniProt Q8IW41); assay: MAPKAP-K5 FlashPlate kinase assay; assay type: biochemical; details: 0.6 μM ATP, 30 minutes, room temperature
T1 sequence (Q8IW41 1-471 isoform Q8IW41-2): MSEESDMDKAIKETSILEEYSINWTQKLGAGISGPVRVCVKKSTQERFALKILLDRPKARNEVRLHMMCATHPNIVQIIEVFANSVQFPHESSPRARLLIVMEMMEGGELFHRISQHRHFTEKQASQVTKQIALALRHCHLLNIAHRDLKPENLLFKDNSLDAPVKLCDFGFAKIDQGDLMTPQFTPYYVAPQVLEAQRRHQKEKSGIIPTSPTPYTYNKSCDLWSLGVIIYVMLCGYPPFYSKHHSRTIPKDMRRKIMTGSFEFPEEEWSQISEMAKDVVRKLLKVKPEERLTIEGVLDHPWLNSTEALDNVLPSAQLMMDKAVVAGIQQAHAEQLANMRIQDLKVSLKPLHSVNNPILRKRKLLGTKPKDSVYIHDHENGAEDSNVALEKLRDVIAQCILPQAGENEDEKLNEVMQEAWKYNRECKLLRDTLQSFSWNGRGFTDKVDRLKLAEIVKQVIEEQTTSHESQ
Experimental: MAPKAP-K5 reactions are performed in FlashPlate format using 0.1 or 0.2 μCi 33P-ATP; 0.6 μM ATP; 1 mU MAPKAP-K5; 3 μM MAPKAP-K5 peptide substrate, incubated at room temperature for 30 minutes.
The MAPKAP-K5 kinase reaction is performed in a 384 well polypropylene plate (Matrix Technologies) and then transferred to a streptavidin-coated 384 well flashplate (Perkin-Elmer). To wells containing 2 μL test compound or standard inhibitor, 13 μL Enzyme mix or diluent are added using a Hydra (Robbins Scientific). Reactions are started by addition of 10 μL of [2.5×] substrate cocktail using a Multidrop (Thermo-Labsystems), to give final concentrations in the assay of: • 1 mU MAPKAP-K5 • 3 μM MAPKAP-K5 peptide substrate • 0.6 μM ATP • 0.004 μCi [33P]-γ-ATP/μL • 1× reaction buffer
Plates are incubated at room temperature for 30 minutes. Reactions are terminated by the addition of 25 μL EDTA (50 mM) to each well using a Micro-fill (Biotek). Reactions are transferred to a streptavidin-coated flashplate using a Zymark robotic system. Plates are incubated for 60 minutes at room temperature. All wells are washed 3 times with 100 μl phosphate buffered saline using a Tecan plate washer. Radioactivity is determined by scintillation counting of the flashplate (empty wells) on a Packard TopCount.
Enzyme Mix: • Enzyme • 50 mM Tris Hcl (pH 7.5) • 0.1 mM EGTA • 2 mM DTT • 1 mg/mL BSA
Reaction Buffer: • 50 mM Tris Hcl (pH 7.5) • 0.1 mM EGTA • 10 mM Magnesium acetate • 2 mM DTT

SMILES	IC50 [nM]
CC(C)N1C[C@@H]2C[C@H]1CN2c1ccc(Nc2ncc(-c3ccc4c(c3)CNC4=O)n3ncnc23)cc1 [Compound 1, 5-{8-[4-((1S,4S)-5-Isopropyl-2,5-diaza-bicyclo[2.2.1]hept-2-yl)-phenylamino]-[1,2,4]triazolo[1,5-a]pyrazin-5-yl}-2,3-dihydro-isoindol-1-one]	0.01 to 100
CC(C)N1C[C@@H]2C[C@H]1CN2c1ccc(Nc2ncc(-c3coc(C(N)=O)c3)n3ncnc23)cc1 [Compound 2, 4-{8-[4-((1S,4S)-5-Isopropyl-2,5-diaza-bicyclo[2.2.1]hept-2-yl)-phenylamino]-[1,2,4]triazolo[1,5-a]pyrazin-5-yl}-furan-2-carboxamide]	0.01 to 100
CC(C)(C)N1C[C@@H]2C[C@H]1CN2c1ccc(Nc2ncc(-c3coc(C(N)=O)c3)n3ncnc23)cc1 [Compound 3, 4-{8-[4-((1S,4S)-5-tert-Butyl-2,5-diaza-bicyclo[2.2.1]hept-2-yl)-phenylamino]-[1,2,4]triazolo[1,5-a]pyrazin-5-yl}-furan-2-carboxamide]	0.01 to 100
CC(C)N1C[C@@H]2C[C@H]1CN2c1ccc(Nc2ncc(-c3coc(C(N)=O)c3)n3ccnc23)cc1 [Compound 4, 4-{8-[4-((1S,4S)-5-Isopropyl-2,5-diaza-bicyclo[2.2.1]hept-2-yl)-phenylamino]-imidazo[1,2-a]pyrazin-5-yl}-furan-2-carboxamide]	101 to 500
CC(C)N1C[C@@H]2C[C@H]1CN2c1ccc(Nc2ncc(-c3cc(C(N)=O)n[nH]3)n3ncnc23)cc1 [Compound 5, 5-{8-(4-((1S,4S)-5-isopropyl-2,5-diazabicyclo[2.2.1]heptan-2-yl)phenyl-amino)-[1,2,4]triazolo[1,5-a]pyrazin-5-yl}-1H-pyrazole-3-carboxamide]	101 to 500
CC(C)(C)N1C[C@@H]2C[C@H]1CN2c1ccc(Nc2ncc(-c3coc(C(N)=O)c3)n3ccnc23)cc1 [Compound 6]	101 to 500
CC(C)N1C[C@@H]2C[C@H]1CN2c1ccc(Nc2ncc(-c3cc[nH]c(=O)c3)n3ccnc23)cc1 [Compound 8, 4-{8-(4-((1S,4S)-5-isopropyl-2,5-diazabicyclo[2.2.1]heptan-2-yl)phenyl-amino)imidazo[1,2-a]pyrazin-5-yl}-1H-pyridin-2-one]	101 to 500
CC(C)N1CC2CCC1CN2c1ccc(Nc2ncc(-c3coc(C(N)=O)c3)n3ncnc23)cc1 (stereo not shown) [Compound 9, 4-{8-(4-(5-isopropyl-2,5-diazabicyclo[2.2.2]octan-2-yl)phenylamino)[1,2,4]-triazolo[1,5-a]pyrazin-5-yl}-furan-2-carboxamide]	0.01 to 100
CC(C)N1CC2CCC(C1)N2c1ccc(Nc2ncc(-c3coc(C(N)=O)c3)n3ccnc23)cc1 [Compound 11, 4-{8-(4-(3-isopropyl-3,8-diazabicyclo[3.2.1]octan-8-yl)phenylamino)-imidazo[1,2-a]pyrazin-5-yl}-furan-2-carboxamide]	101 to 500
CC(C)N1C2CCC1CN(c1ccc(Nc3ncc(-c4coc(C(N)=O)c4)n4ncnc34)cc1)C2 [Compound 12, 4-{8-(4-(8-isopropyl-3,8-diazabicyclo[3.2.1]octan-3-yl)phenylamino)[1,2,4]-triazolo[1,5-a]pyrazin-5-yl}-furan-2-carboxamide]	0.01 to 100
CC(C)N1C[C@@H]2C[C@H]1CN2c1ccc(Nc2ncc(-c3cc(C(N)=O)n[nH]3)n3ncnc23)cn1 [Compound 15, 5-{8-(6-((1S,4S)-5-isopropyl-2,5-diazabicyclo[2.2.1]heptan-2-yl)pyridin-3-ylamino)-[1,2,4]triazolo[1,5-a]pyrazin-5-yl}-1H-pyrazole-3-carboxylic acid amide]	101 to 500
CC(C)(C)N1C[C@@H]2C[C@H]1CN2c1ccc(Nc2ncc(-c3ccc4c(c3)CNC4=O)n3ncnc23)cc1 [Compound 16, 5-{8-(4-((1S,4S)-5-tert-butyl-2,5-diazabicyclo[2.2.1]heptan-2-yl)phenylamino)-[1,2,4]triazolo-[1,5-a]pyrazin-5-yl}-2,3-dihydro-isoindol-1-one]	101 to 500
CC(C)(C)N1C[C@@H]2C[C@H]1CN2c1ccc(Nc2ncc(-c3cc(C(N)=O)n[nH]3)n3ncnc23)cc1 [Compound 17, 5-{8-(4-((1S,4S)-5-tert-butyl-2,5-diazabicyclo[2.2.1]heptan-2-yl)phenyl-amino)-[1,2,4]triazolo[1,5-a]pyrazin-5-yl}-1H-pyrazole-3-carboxylic acid amide]	101 to 500
CC(C)N1C[C@@H]2C[C@H]1CN2c1ccc(Nc2ncc(-c3ccc4c(c3)CNC4=O)n3ncnc23)cn1 [Compound 18, 5-{8-(6-((1S,4S)-5-isopropyl-2,5-diazabicyclo[2.2.1]heptan-2-yl)pyridin-3-ylamino)-[1,2,4]triazolo[1,5-a]pyrazin-5-yl}-2,3-dihydro-isoindol-1-one]	101 to 500
CCOc1cc(-c2cnc(Nc3ccc(N4C[C@@H]5C[C@H]4CN5C(C)C)cc3)c3ncnn23)ccn1 [Compound 19, 5-(2-ethoxypyridin-4-yl)-N-(4-((1S,4S)-5-isopropyl-2,5-diazabicyclo[2.2.1]heptan-2-yl)phenyl)-[1,2,4]triazolo[1,5-a]pyrazin-8-amine]	> 1000
CC(C)N1C[C@@H]2C[C@H]1CN2c1ccc(Nc2ncc(-c3cc[nH]c(=O)c3)n3ncnc23)cc1 [Compound 20, 4-(8-(4-((1S,4S)-5-isopropyl-2,5-diazabicyclo[2.2.1]heptan-2-yl)phenylamino)-[1,2,4]triazolo[1,5-a]pyrazin-5-yl)pyridin-2(1H)-one]	> 1000
CCOC(=O)c1cc(-c2cnc(Nc3ccc(N4C[C@@H]5C[C@H]4CN5C(C)C)cc3)c3ncnn23)[nH]n1 [Compound 21, Ethyl 5-(8-(4-((1S,4S)-5-isopropyl-2,5-diazabicyclo[2.2.1]heptan-2-yl)phenylamino)-[1,2,4]triazolo[1,5-a]pyrazin-5-yl)-1H-pyrazole-3-carboxylate]	> 1000
CCOc1cc(-c2cnc(Nc3ccc(N4C[C@@H]5C[C@H]4CN5C(C)C)cc3)c3nccn23)ccn1 [Compound 22, 5-(2-ethoxypyridin-4-yl)-N-(4-((1S,4S)-5-isopropyl-2,5-diazabicyclo[2.2.1]heptan-2-yl)phenyl)imidazo[1,2-a]pyrazin-8-amine]	> 1000
CC(C)N1C[C@@H]2C[C@H]1CN2c1ccc(Nc2ncc(-c3noc(C(N)=O)n3)n3ncnc23)cc1 [Compound 23, 3-(8-(4-((1S,4S)-5-isopropyl-2,5-diazabicyclo[2.2.1]heptan-2-yl)phenylamino)-[1,2,4]triazolo[1,5-a]pyrazin-5-yl)-1,2,4-oxadiazole-5-carboxamide]	> 1000
CC(C)N1C[C@@H]2C[C@H]1CN2c1cccc(Nc2ncc(-c3coc(C(N)=O)c3)n3ncnc23)c1 [Compound 24, 4-(8-(3-((1S,4S)-5-isopropyl-2,5-diazabicyclo[2.2.1]heptan-2-yl)phenylamino)-[1,2,4]triazolo[1,5-a]pyrazin-5-yl)furan-2-carboxamide]	0.01 to 100
CC(C)N1C[C@@H]2C[C@H]1CN2c1cccc(Nc2ncc(-c3coc(C(N)=O)c3)n3ccnc23)c1 [Compound 25, 4-(8-(3-((1S,4S)-5-isopropyl-2,5-diazabicyclo[2.2.1]heptan-2-yl)phenylamino)imidazo[1,2-a]pyrazin-5-yl)furan-2-carboxamide]	101 to 500
CC(C)N1C[C@@H]2C[C@H]1CN2c1cccc(Nc2ncc(-c3ccc4c(c3)CNC4=O)n3ncnc23)c1 [Compound 26, 5-(8-(3-((1S,4S)-5-isopropyl-2,5-diazabicyclo[2.2.1]heptan-2-yl)phenylamino)-[1,2,4]triazolo[1,5-a]pyrazin-5-yl)isoindolin-1-one]	101 to 500
